Results as given in patent US20140135270A1, “MACROCYCLIC COMPOUNDS FOR INHIBITION OF INHIBITORS OF APOPTOSIS” (Ensemble Therapeutics Corp., priority 2012, published 2014).

Tests used:
[1] = biological target: T1, His-BIR2-3 (125-356, C202A/C213G, XIAP) (Homo sapiens, UniProt P98170, C202A/C213G); assay: XIAP-BIR2-3 Dimeric SMAC Peptide Homogeneous Time Resolved Fluorescence (HTRF) Assay; type: binding; conditions: fluorescein labeled dimeric SMAC peptide
T1 construct: additions of His-BIR2-3 (125-356, C202A/C213G, XIAP), fluorescein labeled dimeric SMAC peptide
T1 sequence (P98170 125-356 C202A/C213G): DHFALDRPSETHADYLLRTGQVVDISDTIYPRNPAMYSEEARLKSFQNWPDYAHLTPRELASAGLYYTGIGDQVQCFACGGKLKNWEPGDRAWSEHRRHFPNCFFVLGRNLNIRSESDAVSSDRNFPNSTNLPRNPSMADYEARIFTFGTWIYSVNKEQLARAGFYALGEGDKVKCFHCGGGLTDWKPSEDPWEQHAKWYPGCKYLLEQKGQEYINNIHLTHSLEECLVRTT

His-BIR3 (241-356, XIAP) = biological target: T2, His-BIR3 (241-356, XIAP) (Homo sapiens, UniProt P98170); assay: XIAP-BIR3/SMAC Homogeneous Time Resolved Fluorescence (HTRF) Assay; type: binding; conditions: fluorescein labeled SMAC peptide
T2 construct: additions of His-BIR3 (241-356, XIAP), fluorescein labeled SMAC peptide
T2 sequence (P98170 241-356): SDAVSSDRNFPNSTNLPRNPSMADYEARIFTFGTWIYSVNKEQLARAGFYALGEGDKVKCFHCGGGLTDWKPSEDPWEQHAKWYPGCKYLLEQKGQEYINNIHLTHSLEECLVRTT

| Compound | IC50 [1] [nM] | IC50 (His-BIR3 (241-356, XIAP)) [nM] |
| --- | --- | --- |
| CN[C@@H](C)C(=O)N[C@H](C(=O)N1C[C@@H]2C[C@H]1C(=O)N[C@@H](Cc1ccc3ccccc3c1)C(=O)N[C@H](C(=O)NS(=O)(=O)C1CC1)Cc1ccc(cc1)OCc1cn(nn1)[C@H]1C[C@@H](C(=O)N[C@@H](Cc3ccc4ccccc4c3)C(=O)N[C@H](C(=O)O)Cc3ccc(cc3)OC/C=C/CO2)N(C(=O)[C@@H](NC(=O)[C@H](C)NC)C(C)(C)C)C1)C1CCOCC1 [Example 109] | 4.4 | 44.3 |
| CN[C@@H](C)C(=O)N[C@H](C(=O)N1C[C@@H]2C[C@H]1C(=O)N[C@@H](Cc1ccc3ccccc3c1)C(=O)N[C@H](C(=O)O)Cc1ccc(cc1)OCc1cn(nn1)[C@H]1C[C@@H](C(=O)N[C@@H](Cc3ccc4ccccc4c3)C(=O)N[C@H](C(=O)NS(C)(=O)=O)Cc3ccc(cc3)OCCCCO2)N(C(=O)[C@@H](NC(=O)[C@H](C)NC)C(C)(C)C)C1)C(C)(C)C [Example 124] | 13.6 | 19.4 |
| CN[C@@H](C)C(=O)N[C@H](C(=O)N1C[C@@H]2C[C@H]1C(=O)N[C@@H](Cc1ccc3ccccc3c1)C(=O)N[C@H](C(=O)O)Cc1ccc(cc1)OC/C=C/C[C@H]1C[C@@H](C(=O)N[C@@H](Cc3ccc4ccccc4c3)C(=O)N[C@H](C(=O)NS(=O)(=O)C3CC3)Cc3ccc(cc3)OCc3cn2nn3)N(C(=O)[C@@H](NC(=O)[C@H](C)NC)C(C)(C)C)C1)C(C)(C)C [Example 86] | 1.1 | 1.7 |
| CN[C@@H](C)C(=O)N[C@H](C(=O)N1C[C@@H]2C[C@H]1C(=O)N[C@@H](Cc1ccc3ccccc3c1)C(=O)N[C@H](C(=O)O)Cc1ccc(cc1)C(=O)N[C@H]1C[C@@H](C(=O)N[C@@H](Cc3ccc4ccccc4c3)C(=O)N[C@H](C(=O)O)Cc3ccc(cc3)OC/C=C/CO2)N(C(=O)[C@@H](NC(=O)[C@H](C)NC)C(C)(C)C)C1)C1CCCCC1 [Example 71] | 3.7 | 27.9 |
| CN[C@@H](C)C(=O)NC(C(=O)N1C[C@H]2C/C=C/COc3ccc(cc3)C[C@@H](c3n[nH]c(=O)o3)NC(=O)C(Cc3ccc4ccccc4c3)NC(=O)[C@@H]3C[C@@H](CN3C(=O)[C@@H](NC(=O)[C@H](C)NC)C(C)(C)C)n3cc(nn3)COc3ccc(cc3)C[C@@H](C(=O)O)NC(=O)[C@H](Cc3ccc4ccccc4c3)NC(=O)[C@@H]1C2)C(C)(C)C (stereo partly drawn) [Example 91] | 0.4 | 2 |
| CN[C@@H](C)C(=O)N[C@H](C(=O)N1C[C@H]2CCCCOc3ccc(cc3)C[C@@H](c3nnn[nH]3)NC(=O)[C@H](Cc3ccc4ccccc4c3)NC(=O)[C@@H]3C[C@@H](CN3C(=O)[C@@H](NC(=O)[C@H](C)NC)C(C)(C)C)n3cc(nn3)COc3ccc(cc3)C[C@@H](C(=O)O)NC(=O)[C@H](Cc3ccc4ccccc4c3)NC(=O)[C@@H]1C2)C(C)(C)C [Example 90] | 0.5 | 1.7 |
| CN[C@@H](C)C(=O)N[C@H](C(=O)N1C[C@@H]2C[C@H]1C(=O)N[C@@H](Cc1ccc3ccccc3c1)C(=O)N[C@H](C(=O)O)Cc1ccc(cc1)OC/C=C/CO[C@H]1C[C@@H](C(=O)N[C@@H](Cc3ccc(-c4ccc(O)cc4)cc3)C(=O)N[C@H](C(=O)NS(=O)(=O)C3CC3)Cc3ccc(cc3)OCc3cn2nn3)N(C(=O)[C@@H](NC(=O)[C@H](C)NC)C(C)(C)C)C1)C(C)(C)C [Example 113] | 7.1 | 13.5 |
| CC[C@H](NC(=O)[C@H](C)NC)C(=O)N1C[C@@H]2C[C@H]1C(=O)N1Cc3ccccc3C[C@H]1C(=O)N[C@H](C(=O)O)Cc1ccc(cc1)C(=O)N[C@H]1C[C@@H](C(=O)N[C@@H](Cc3ccc4ccccc4c3)C(=O)N[C@H](C(=O)O)Cc3ccc(cc3)OC/C=C/CO2)N(C(=O)[C@@H](NC(=O)[C@H](C)NC)C(C)(C)C)C1 [Example 50] | 56.7 | 80 |
| CN[C@@H](C)C(=O)N[C@H](C(=O)N1C[C@@H]2C[C@H]1C(=O)NC(Cc1ccc3ccccc3c1)C(=O)N[C@H](c1n[nH]c(=O)n1Cc1ccc(OC)cc1)Cc1ccc(cc1)OC/C=C/C[C@H]1C[C@@H](C(=O)N[C@@H](Cc3ccc4ccccc4c3)C(=O)N[C@H](C(=O)O)Cc3ccc(cc3)OCc3cn2nn3)N(C(=O)[C@@H](NC(=O)[C@H](C)NC)C(C)(C)C)C1)C(C)(C)C (stereo partly drawn) [Example 95] | 1.8 | 3.1 |
| CN[C@@H](C)C(=O)N[C@H](C(=O)N1C[C@H]2C/C=C/COc3ccc(cc3)C[C@@H](C(=O)NS(=O)(=O)C3CC3)NC(=O)[C@H](Cc3ccc4ccccc4c3)NC(=O)[C@@H]3C[C@@H](CN3C(=O)[C@@H](NC(=O)[C@H](C)NC)C(C)(C)C)n3cc(nn3)COc3ccc(cc3)C[C@@H](C(=O)O)NC(=O)[C@H](Cc3ccc4ccccc4c3)NC(=O)[C@@H]1C2)C(C)(C)C [Example 25] | 0.2 | 0.9 |
| CN[C@@H](C)C(=O)N[C@H](C(=O)N1C[C@H]2C/C=C/COc3ccc(cc3)C[C@@H](C(=O)O)NC(=O)[C@H]([C@H](C)c3ccc4ccccc4c3)NC(=O)[C@@H]3C[C@@H](CN3C(=O)[C@@H](NC(=O)[C@H](C)NC)C(C)(C)C)n3cc(nn3)COc3ccc(cc3)C[C@@H](C(=O)NS(=O)(=O)C3CC3)NC(=O)[C@H](Cc3ccc4ccccc4c3)NC(=O)[C@@H]1C2)C(C)(C)C [Example 98] | 2.2 | 4.4 |
| CN[C@@H](C)C(=O)N[C@@H](Cc1ccccc1)C(=O)N1C[C@@H]2C[C@H]1C(=O)N[C@@H](Cc1ccc3ccccc3c1)C(=O)N[C@H](C(=O)O)CCC(=O)N[C@H]1C[C@@H](C(=O)N[C@@H](Cc3ccc4ccccc4c3)C(=O)N[C@H](C(=O)O)Cc3ccc(cc3)OC/C=C/CO2)N(C(=O)[C@@H](NC(=O)[C@H](C)NC)C(C)(C)C)C1 [Example 60] | 9.2 | 79.5 |
| CN[C@@H](C)C(=O)N[C@H](C(=O)N1C[C@H]2C/C=C/COc3ccc(cc3)C[C@@H](C(=O)NS(=O)(=O)C3CC3)NC(=O)[C@H](Cc3ccc4ccccc4c3)NC(=O)[C@@H]3C[C@H](C/C=C/COc4ccc(cc4)C[C@@H](C(=O)O)NC(=O)[C@H](Cc4ccc5ccccc5c4)NC(=O)[C@@H]1C2)CN3C(=O)[C@@H](NC(=O)[C@H](C)NC)C(C)(C)C)C(C)(C)C [Example 88] | 1.7 | 3.9 |
| CN[C@@H](C)C(=O)N[C@H](C(=O)N1C[C@@H]2C[C@H]1C(=O)N[C@@H](Cc1ccc3ccccc3c1)C(=O)N[C@H](C(=O)O)Cc1ccc(cc1)OC/C=C/CO[C@H]1C[C@@H](C(=O)N[C@@H](Cc3ccc4ccccc4c3)C(=O)N[C@H](C(=O)O)Cc3ccc(cc3)C(=O)N2)N(C(=O)[C@@H](NC(=O)[C@H](C)N(C)C(C)=O)C(C)(C)C)C1)C(C)(C)C [Example 73] | 440 | 29.3 |
| CNC(C)C(=O)NC(C(=O)N1CC2CC1C(=O)NC(Cc1ccc3ccccc3c1)C(=O)NC(C(=O)O)Cc1ccc(cc1)OCCCCC1CC(C(=O)NC(Cc3ccc4ccccc4c3)C(=O)NC(C(=O)NS(=O)(=O)C(C)C)Cc3ccc(cc3)OCc3cn2nn3)N(C(=O)C(NC(=O)C(C)NC)C(C)(C)C)C1)C(C)(C)C (stereo not drawn) [Example 10] | 3.1 | 6.6 |
| CN[C@@H](C)C(=O)N[C@H](C(=O)N1C[C@@H]2C[C@H]1C(=O)N[C@@H](Cc1ccc3ccccc3c1)C(=O)N[C@H](C(=O)O)Cc1ccc(cc1)OC/C=C/CO[C@H]1C[C@@H](C(=O)N[C@@H](Cc3c[nH]c4ccccc34)C(=O)N[C@H](C(=O)O)Cc3ccc(cc3)C(=O)N2)N(C(=O)[C@@H](NC(=O)[C@H](C)NC)C(C)(C)C)C1)C(C)(C)C [Example 46] | 5.3 | 24.2 |
| CN[C@@H](C)C(=O)N[C@H](C(=O)N1C[C@@H]2C[C@H]1C(=O)N[C@@H](Cc1ccc3ccccc3c1)C(=O)N[C@H](C(=O)O)Cc1ccc(cc1)OC/C=C/C[C@H]1C[C@@H](C(=O)N[C@@H](Cc3ccc4ccccc4c3)C(=O)N[C@H](C(=O)NS(=O)(=O)C3CC3)Cc3ccc(cc3)OCc3cnnn32)N(C(=O)[C@@H](NC(=O)[C@H](C)NC)C(C)(C)C)C1)C(C)(C)C [Example 102] | 35 | 10 |
| CN[C@@H](C)C(=O)N[C@H](C(=O)N[C@H]1C/C=C/CC[C@@H](C(=O)O)NC(=O)[C@H](Cc2ccccc2)NC(=O)[C@@H]2CN(CCNC(=O)CC[C@@H](C(=O)O)NC(=O)[C@H](Cc3ccccc3)NC1=O)CCN2C(=O)[C@@H](NC(=O)[C@H](C)NC)C(C)C)C(C)C [Example 81] | 1.1 | 26 |
| CN[C@@H](C)C(=O)N[C@@H](Cc1c[nH]cn1)C(=O)N1C[C@@H]2C[C@H]1C(=O)N[C@@H](Cc1ccc3ccccc3c1)C(=O)N[C@H](C(=O)O)CCC(=O)N[C@H]1C[C@@H](C(=O)N[C@@H](Cc3ccc4ccccc4c3)C(=O)N[C@H](C(=O)O)Cc3ccc(cc3)OC/C=C/CO2)N(C(=O)[C@@H](NC(=O)[C@H](C)NC)C(C)(C)C)C1 [Example 59] | 24.3 | 131 |
| CN[C@@H](C)C(=O)N[C@H](C(=O)N1C[C@H]2CCCCOc3ccc(cc3)C[C@@H](C(=O)NS(=O)(=O)C3CC3)NC(=O)[C@H](Cc3ccc4ccccc4c3)NC(=O)[C@@H]3C[C@H](CCCCOc4ccc(cc4)C[C@@H](C(=O)O)NC(=O)[C@H](Cc4ccc5ccccc5c4)NC(=O)[C@@H]1C2)CN3C(=O)[C@@H](NC(=O)[C@H](C)NC)C(C)(C)C)C(C)(C)C [Example 89] | 3 | 5.9 |
| CN[C@@H](C)C(=O)N[C@H](C(=O)N1CC[C@@H]2OC/C=C/CC[C@@H](C(=O)O)NC(=O)[C@H](Cc3ccc4ccccc4c3)NC(=O)[C@@H]3[C@H](CCN3C(=O)[C@@H](NC(=O)[C@H](C)NC)C(C)(C)C)OCc3cn(nn3)[C@H](C(=O)NS(C)(=O)=O)CCCNC(=O)[C@H](Cc3ccc4ccccc4c3)NC(=O)[C@H]21)C(C)(C)C [Example 19] | 16.8 | 35.3 |
